Results published in US20090117215A1, “EXTRACT OF CERATONIA SILIQUA LEAVES AND PODS CONTAINING POLYPHENOLS WITH ANTIOXIDANT AND ANTITUMOR ACTIVITIES” (priority 2001, published 2009).

Tests used:
[1] = system: T1 cells (liver tumour cells); assay: Cell proliferation assay (MTS) in T1 hepatic tumour cells; format: cell-based, mice; conditions: for inhibition of cell proliferation in liver tumour cells: FIG. 1, after 24 and 48 hours exposure; for concentration at which proliferation is already inhibited / concentration reaching the peak activity (inhibition of proliferation): hepatic tumour cell cultures (T1), 24 and 48 hours exposure
Method: (§1) Tumour cell cultures (T1) used in the tests derive from transgenic mice hepatocellular carcinoma, in which an over-expression of the c-myc and TGFα had been induced. Cells were kept in L-glutamine-free DMEM medium, HAM F 12 containing 1 mg/ml galactose, 18 mM HEPES, 5 mM Na piruvate, 30 mg/M1 proline, ITS 100×, 2 mM glutamine, 0.1% gentamicin (Sigma-Aldrich, Italy) and added with 10% FBS. Cell lines were cultured in polystyrene plates (Dasit, Italy).
T1 cells were plated in 96 wells-plates at a concentration of 10,000 cells/well and left to sediment for 4-5 hours. Cells were then incubated in EGCG or ECG at a concentration of 20, 40, 60, 80, 160 μg/ml for 24 and 48 hours. The substances were diluted in the culture medium starting from stock solutions (aqueous solution for EGCG and aqueous-ethanol solution (1:1) for ECG). Control cells were treated with solutions containing ethanol in amounts corresponding to that of the samples containing catechins. After 24 or 48 hours, the proliferation was calorimetrically measured using a specific kit (Cell Titer Aqueous Cell Proliferation Assay, Promega) which makes use of a calorimetric transformation reaction of colourless MTS (tetrazolium salt) into coloured formazan by living, proliferating cells. Formazan quantitation was carried out by spectrophotometric analysis at λ=490 nm.

[2] = system: caspase 3; assay: Evaluation of caspase 3 activation in T1 cell lysates; format: cell-based, mice; conditions: 80 μg/ml, compared with untreated cells; FIG. 2
Method: as §1
Caspase 3 protease activity in cells lysates was determined using a Promega kit. T1 Cells were treated with EGCG and ECG (80 μg/ml) alone or in combination with a caspase inhibitor (Z-VAD-FMK) for 24 or 48 hours. Afterwards a calorimetric substrate (DEVD-pNA) able to evidence the protease activity was added. After incubation for 4 hours at 37° C., the protease activity was determined by spectrophotometric analysis at λ=405 nm.

| SMILES | inhibition of cell proliferation in liver tumour cells [1] | concentration at which proliferation is already inhibited [1] | concentration reaching the peak activity (inhibition of proliferation) [1] | caspase 3 protease activity [2] |
| --- | --- | --- | --- | --- |
| O=C(O[C@@H]1Cc2c(O)cc(O)cc2O[C@@H]1c1cc(O)c(O)c(O)c1)c1cc(O)c(O)c(O)c1 [EGCG, (−)-epigallocatechin-3-gallate] | dose-dependent | 40 µg/mL | 80 µg/mL | activation |
| O=C(O[C@@H]1Cc2c(O)cc(O)cc2O[C@@H]1c1ccc(O)c(O)c1)c1cc(O)c(O)c(O)c1 [ECG, (−)-epicatechin-3-gallate] |  | 40 µg/mL | 80 µg/mL | activation |
| Oc1cc(O)c2c(c1)O[C@H](c1cc(O)c(O)c(O)c1)[C@H](O)C2 [EGC, epigallocatechin] | dose-dependent |  |  |  |
